Measured values reported in PubChem BioAssay AID248 (DTP/NCI, 2004).
Where “and” joins values, the source holds several entries; their conditions need not be identical. Equal values may be shown once. Inconclusive results and toxic doses are left out. Rule as the data show it: active = T/C of 150% or more; inactive = T/C below 125%.

System: L1210 leukemia ip in BDF1 mice, survival T/C
Assay: NCI In Vivo Anticancer Drug Screen. Data for tumor model L1210 Leukemia (intraperitoneal) in B6D2F1 (BDF1) mice
Conditions: endpoint: mean survival time, higher = longer survival
Method in brief: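 Antitumor effect is assessed in tumor-bearing animals. Survival in the compound arm is compared with a vehicle-dosed control arm and expressed as their quotient.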

[1] = dose: 100.0 mg/kg/injection, schedule: Q01DX001 (ip), vehicle: carboxymethylcellulose (CMC)
[2] = dose: 12.5 mg/kg/injection, schedule: Q01DX009 (ip), vehicle: Klucel (hydroxypropylcellulose) (HPC)
[3] = dose: 25.0 mg/kg/injection, schedule: Q01DX009 (ip), vehicle: Klucel (hydroxypropylcellulose) (HPC)
[4] = dose: 50.0 mg/kg/injection, schedule: Q01DX001 (ip), vehicle: saline
[5] = dose: 50.0 mg/kg/injection, schedule: Q01DX009 (ip), vehicle: Klucel (hydroxypropylcellulose) (HPC)
[6] = dose: 100.0 mg/kg/injection, schedule: Q01DX001 (ip), vehicle: saline

Measured: T/C

Nc1nc2c(c(=O)[nH]1)CN(C(CCc1ccc(N(CCCl)CCCl)cc1)C(=O)O)CN2 (stereo not drawn)
inactive: dose: 12.5 mg/kg/injection, schedule: Q01DX001 (ip), vehicle: carboxymethylcellulose (CMC) 111 % of control | dose: 25.0 mg/kg/injection, schedule: Q01DX001 (ip), vehicle: carboxymethylcellulose (CMC) 107 % of control | dose: 50.0 mg/kg/injection, schedule: Q01DX001 (ip), vehicle: carboxymethylcellulose (CMC) 113 % of control | dose: 50.0 mg/kg/injection, schedule: Q01DX009 (ip), vehicle: carboxymethylcellulose (CMC) 101 % of control | [1] 111 % of control | dose: 100.0 mg/kg/injection, schedule: Q01DX009 (ip), vehicle: carboxymethylcellulose (CMC) 108 % of control

Nc1ncnc2c1ncn2C1OC(CO)C(O)C1O (stereo not drawn)
inactive: dose: 6.25 mg/kg/injection, schedule: Q01DX009 (ip), vehicle: Klucel (hydroxypropylcellulose) (HPC) 115 % of control | dose: 7.8 mg/kg/injection, schedule: Q#A X012 (ip), vehicle: methylcellulose (MC) 102 % of control and 109 % of control | [2] 112 % of control | dose: 12.5 mg/kg/injection, schedule: Q04DX002 (ip), vehicle: Klucel (hydroxypropylcellulose) (HPC) 100 % of control | dose: 13.0 mg/kg/injection, schedule: Q#A X012 (ip), vehicle: methylcellulose (MC) 103 % of control and 109 % of control | dose: 22.0 mg/kg/injection, schedule: Q#A X012 (ip), vehicle: methylcellulose (MC) 102 % of control and 110 % of control | dose: 25.0 mg/kg/injection, schedule: Q01DX001 (ip), vehicle: saline 103 % of control | [3] 100 % of control and 108 % of control | dose: 25.0 mg/kg/injection, schedule: Q04DX002 (ip), vehicle: Klucel (hydroxypropylcellulose) (HPC) 107 % of control | dose: 25.0 mg/kg/injection, schedule: Q04DX003 (ip), vehicle: saline 105 % of control | dose: 36.0 mg/kg/injection, schedule: Q#A X012 (ip), vehicle: methylcellulose (MC) 106 % of control and 108 % of control | [4] 100 % of control | [5] 101 % of control and 107 % of control | dose: 50.0 mg/kg/injection, schedule: Q04DX002 (ip), vehicle: Klucel (hydroxypropylcellulose) (HPC) 97 % of control | dose: 50.0 mg/kg/injection, schedule: Q04DX003 (ip), vehicle: saline 116 % of control | dose: 60.0 mg/kg/injection, schedule: Q#A X012 (ip), vehicle: methylcellulose (MC) 106 % of control | [1] 100 % of control | [6] 100 % of control and 110 % of control | dose: 100.0 mg/kg/injection, schedule: Q01DX005 (ip), vehicle: saline 106 % of control and 95 % of control and 92 % of control | dose: 100.0 mg/kg/injection, schedule: Q01DX009 (ip), vehicle: Klucel (hydroxypropylcellulose) (HPC) 103 % of control | dose: 100.0 mg/kg/injection, schedule: Q01DX009 (ip), vehicle: saline 94 % of control | dose: 100.0 mg/kg/injection, schedule: Q04DX003 (ip), vehicle: saline 104 % of control and 112 % of control | dose: 118.0 mg/kg/injection, schedule: Q01DX005 (ip), vehicle: water 112 % of control | dose: 118.0 mg/kg/injection, schedule: Q01DX009 (ip), vehicle: water 112 % of control | dose: 150.0 mg/kg/injection, schedule: Q01DX009 (ip), vehicle: saline 105 % of control | dose: 177.0 mg/kg/injection, schedule: Q01DX005 (ip), vehicle: water 114 % of control | dose: 177.0 mg/kg/injection, schedule: Q01DX009 (ip), vehicle: saline with Tween-80 120 % of control | dose: 177.0 mg/kg/injection, schedule: Q01DX009 (ip), vehicle: water 111 % of control | dose: 200.0 mg/kg/injection, schedule: Q01DX001 (ip), vehicle: carboxymethylcellulose (CMC) 100 % of control and 107 % of control | dose: 200.0 mg/kg/injection, schedule: Q01DX005 (ip), vehicle: saline 95 % of control and 101 % of control and 87 % of control | dose: 200.0 mg/kg/injection, schedule: Q01DX009 (ip), vehicle: Klucel (hydroxypropylcellulose) (HPC) 97 % of control | dose: 200.0 mg/kg/injection, schedule: Q01DX009 (ip), vehicle: carboxymethylcellulose (CMC) 114 % of control | dose: 200.0 mg/kg/injection, schedule: Q01DX009 (ip), vehicle: saline 102 % of control | dose: 200.0 mg/kg/injection, schedule: Q04DX003 (ip), vehicle: saline 94 % of control | dose: 266.0 mg/kg/injection, schedule: Q01DX005 (ip), vehicle: water 115 % of control | dose: 266.0 mg/kg/injection, schedule: Q01DX009 (ip), vehicle: saline with Tween-80 124 % of control | dose: 266.0 mg/kg/injection, schedule: Q01DX009 (ip), vehicle: water 112 % of control | dose: 300.0 mg/kg/injection, schedule: Q01DX009 (ip), vehicle: saline 102 % of control | dose: 400.0 mg/kg/injection, schedule: Q01DX001 (ip), vehicle: carboxymethylcellulose (CMC) 106 % of control and 109 % of control | dose: 400.0 mg/kg/injection, schedule: Q01DX005 (ip), vehicle: water 112 % of control | dose: 400.0 mg/kg/injection, schedule: Q01DX009 (ip), vehicle: Klucel (hydroxypropylcellulose) (HPC) 116 % of control | dose: 400.0 mg/kg/injection, schedule: Q01DX009 (ip), vehicle: saline 107 % of control | dose: 400.0 mg/kg/injection, schedule: Q01DX009 (ip), vehicle: water 117 % of control | dose: 400.0 mg/kg/injection, schedule: Q04DX003 (ip), vehicle: saline 88 % of control | dose: 500.0 mg/kg/injection, schedule: Q03HX024 (ip), vehicle: saline with Tween-80 124 % of control | dose: 600.0 mg/kg/injection, schedule: Q01DX005 (ip), vehicle: water 110 % of control | dose: 600.0 mg/kg/injection, schedule: Q01DX009 (ip), vehicle: saline 109 % of control | dose: 600.0 mg/kg/injection, schedule: Q01DX009 (ip), vehicle: water 119 % of control | dose: 600.0 mg/kg/injection, schedule: Q03HX024 (ip), vehicle: saline with Tween-80 113 % of control | dose: 800.0 mg/kg/injection, schedule: Q01DX001 (ip), vehicle: carboxymethylcellulose (CMC) 107 % of control | dose: 800.0 mg/kg/injection, schedule: Q01DX009 (ip), vehicle: Klucel (hydroxypropylcellulose) (HPC) 103 % of control | dose: 800.0 mg/kg/injection, schedule: Q01DX009 (ip), vehicle: carboxymethylcellulose (CMC) 122 % of control | dose: 900.0 mg/kg/injection, schedule: Q01DX005 (ip), vehicle: water 115 % of control | dose: 900.0 mg/kg/injection, schedule: Q01DX009 (ip), vehicle: water 122 % of control | dose: 1000.0 mg/kg/injection, schedule: Q01DX009 (ip), vehicle: carboxymethylcellulose (CMC) 112 % of control | dose: 1200.0 mg/kg/injection, schedule: Q01DX009 (ip), vehicle: carboxymethylcellulose (CMC) 118 % of control | dose: 1600.0 mg/kg/injection, schedule: Q01DX001 (ip), vehicle: carboxymethylcellulose (CMC) 112 % of control

CCO/C([O-])=C/[P+](c1ccccc1)(c1ccccc1)c1ccccc1
inactive: [2] 103 % of control | [3] 106 % of control | dose: 25.0 mg/kg/injection, schedule: Q04DX003 (ip), vehicle: Klucel (hydroxypropylcellulose) (HPC) 103 % of control | [5] 103 % of control | dose: 50.0 mg/kg/injection, schedule: Q04DX003 (ip), vehicle: Klucel (hydroxypropylcellulose) (HPC) 103 % of control | dose: 100.0 mg/kg/injection, schedule: Q04DX003 (ip), vehicle: Klucel (hydroxypropylcellulose) (HPC) 96 % of control

Cc1ccc(S(=O)(=O)OCCN(CCOS(=O)(=O)c2ccc(C)cc2)c2ccc(N=O)cc2)cc1
inactive: [4] 115 % of control | [6] 124 % of control

O=C(Nc1ccccc1-c1ccc([N+](=O)[O-])cc1)c1cccc2ccccc12
inactive: dose: 200.0 mg/kg/injection, schedule: Q04DX003 (ip), vehicle: saline with Tween-80 87 % of control | dose: 400.0 mg/kg/injection, schedule: Q04DX003 (ip), vehicle: saline with Tween-80 90 % of control
